Article PMC10161222, “Small Molecule Decoys of Aggregation for Elimination of Aβ-Peptide Toxicity” (ACS Chemical Neuroscience, 2023)

Target: T1, Aβ40 (Homo sapiens, UniProt P05067)
T1 construct: gene APP; 40-residue peptide cut from APP; IC50 rows: purchased mixture of HiLyte Fluor 488- and HiLyte Fluor 647-labelled human peptide (AnaSpec); ThT and TEM rows: unlabelled human recombinant peptide; self-associating, small oligomers of at most 8 monomers
Assay: FRET-FCS early aggregation, molecular brightness (counts per particle)
Assay type: biochemical
Settings: inhibition of oligomer formation; HiLyte 488/647-labelled Aβ40 (about 100 nM + 200 nM), 20 mM HEPES pH 7.4

T1 sequence (P05067 672-711 limits assumed): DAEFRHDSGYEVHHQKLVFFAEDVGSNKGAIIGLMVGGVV

- IC50: 130 nM
Structure (SMILES): COc1cc(-c2ccc(N=Nc3cc(S(=O)(=O)O)c4ccccc4c3O)c(OC)c2)ccc1N=Nc1cc(S(=O)(=O)O)c2ccccc2c1O [#2, NSC 9615]
